Source: ChEMBL document CHEMBL1921742, “9,10-secosteroids, protein kinase inhibitors from the Chinese gorgonian Astrogorgia sp” (Bioorg Med Chem, 2011)

What was measured:
[1] = biological target: RAC-alpha serine/threonine-protein kinase (Homo sapiens, UniProt P31749); test: Inhibition of recombinant human AKT1 using GSK3 (amino acids 14 to 27) as substrate
[2] = biological target: ALK tyrosine kinase receptor (Homo sapiens, UniProt Q9UM73); test: Inhibition of recombinant human ALK
[3] = biological target: T1, NUAK family SNF1-like kinase 1 (Homo sapiens, UniProt O60285); test: Inhibition of recombinant human ARK5
T1 sequence (O60285 whole entry): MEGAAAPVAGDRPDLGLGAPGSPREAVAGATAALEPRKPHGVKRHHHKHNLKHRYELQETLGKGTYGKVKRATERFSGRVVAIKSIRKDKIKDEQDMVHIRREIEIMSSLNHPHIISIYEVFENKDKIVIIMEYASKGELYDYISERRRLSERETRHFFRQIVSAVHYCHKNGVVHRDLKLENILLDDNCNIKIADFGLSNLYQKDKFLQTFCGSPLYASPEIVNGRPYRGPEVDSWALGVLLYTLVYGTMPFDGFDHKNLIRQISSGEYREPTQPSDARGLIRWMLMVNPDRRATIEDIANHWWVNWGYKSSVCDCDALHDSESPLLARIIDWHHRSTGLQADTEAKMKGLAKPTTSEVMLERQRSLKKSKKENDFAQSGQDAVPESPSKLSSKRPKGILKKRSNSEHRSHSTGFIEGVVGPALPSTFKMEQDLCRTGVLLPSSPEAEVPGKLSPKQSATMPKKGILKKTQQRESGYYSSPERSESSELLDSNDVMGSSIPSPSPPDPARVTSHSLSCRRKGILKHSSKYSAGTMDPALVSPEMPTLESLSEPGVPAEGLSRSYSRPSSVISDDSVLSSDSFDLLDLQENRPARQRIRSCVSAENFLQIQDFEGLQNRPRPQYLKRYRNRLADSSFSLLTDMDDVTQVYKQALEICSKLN

Aurora kinase B = Aurora kinase B (Homo sapiens, UniProt Q96GD4); test: Inhibition of recombinant human Aurora-B using tetra(LRRWLSG) as substrate
[4] = biological target: T2, Tyrosine-protein kinase receptor UFO (Homo sapiens, UniProt P30530); test: Inhibition of recombinant human AXL
T2 sequence (P30530 whole entry): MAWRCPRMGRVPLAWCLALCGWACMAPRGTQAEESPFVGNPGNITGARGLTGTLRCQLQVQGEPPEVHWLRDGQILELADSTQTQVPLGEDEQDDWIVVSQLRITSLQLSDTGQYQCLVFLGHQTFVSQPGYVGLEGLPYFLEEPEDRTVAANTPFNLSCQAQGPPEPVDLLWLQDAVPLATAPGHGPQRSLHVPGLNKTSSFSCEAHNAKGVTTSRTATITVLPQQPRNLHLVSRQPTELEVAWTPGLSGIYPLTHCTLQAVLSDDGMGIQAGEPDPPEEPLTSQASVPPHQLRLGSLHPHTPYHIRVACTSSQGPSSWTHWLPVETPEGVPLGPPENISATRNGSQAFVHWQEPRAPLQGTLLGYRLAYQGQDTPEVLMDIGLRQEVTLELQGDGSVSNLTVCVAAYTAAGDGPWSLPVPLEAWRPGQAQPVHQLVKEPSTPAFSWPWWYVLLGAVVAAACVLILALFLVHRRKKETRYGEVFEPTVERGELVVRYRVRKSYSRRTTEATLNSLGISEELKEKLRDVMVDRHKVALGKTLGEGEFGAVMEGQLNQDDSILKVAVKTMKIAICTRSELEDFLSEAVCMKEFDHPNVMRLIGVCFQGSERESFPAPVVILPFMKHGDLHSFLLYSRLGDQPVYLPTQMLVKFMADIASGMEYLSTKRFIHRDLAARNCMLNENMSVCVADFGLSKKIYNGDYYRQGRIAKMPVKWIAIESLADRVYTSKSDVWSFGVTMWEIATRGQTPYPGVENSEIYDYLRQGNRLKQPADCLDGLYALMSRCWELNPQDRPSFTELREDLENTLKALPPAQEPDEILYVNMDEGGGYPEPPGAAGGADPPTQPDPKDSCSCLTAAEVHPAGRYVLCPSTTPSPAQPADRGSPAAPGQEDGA

Focal adhesion kinase 1 = Focal adhesion kinase 1 (Homo sapiens, UniProt Q05397); test: Inhibition of recombinant human FAK using poly(Glu,Tyr)4:1 as substrate
[5] = biological target: Insulin-like growth factor 1 receptor (Homo sapiens, UniProt P08069); test: Inhibition of recombinant human IGF1-R using poly(Glu,Tyr)4:1 as substrate
[6] = biological target: Dual specificity mitogen-activated protein kinase kinase 1 (Homo sapiens, UniProt Q02750); test: Inhibition of wild type human MEK1
[7] = biological target: Hepatocyte growth factor receptor (Homo sapiens, UniProt P08581); test: Inhibition of wild type human MET using poly(Ala,Glu,Lys,Tyr) as substrate
[8] = biological target: T3, Serine/threonine-protein kinase Nek2 (Homo sapiens, UniProt P51955); test: Inhibition of recombinant human NEK2
T3 sequence (P51955 whole entry): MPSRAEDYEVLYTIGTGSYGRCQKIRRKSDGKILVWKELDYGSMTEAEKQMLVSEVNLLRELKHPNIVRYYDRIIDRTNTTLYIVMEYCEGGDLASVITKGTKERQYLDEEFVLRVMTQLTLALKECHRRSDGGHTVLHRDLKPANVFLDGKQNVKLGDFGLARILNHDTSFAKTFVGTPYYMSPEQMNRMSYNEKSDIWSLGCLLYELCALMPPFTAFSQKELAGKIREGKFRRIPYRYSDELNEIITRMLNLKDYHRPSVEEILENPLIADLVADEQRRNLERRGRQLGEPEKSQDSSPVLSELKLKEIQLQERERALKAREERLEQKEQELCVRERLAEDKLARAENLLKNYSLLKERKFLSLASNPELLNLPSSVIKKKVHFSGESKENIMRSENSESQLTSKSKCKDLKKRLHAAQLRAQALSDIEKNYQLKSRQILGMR

[9] = biological target: Serine/threonine-protein kinase Nek6 (Homo sapiens, UniProt Q9HC98); test: Inhibition of recombinant human NEK6
[10] = biological target: Serine/threonine-protein kinase pim-1 (Homo sapiens, UniProt P11309); test: Inhibition of recombinant human PIM1
[11] = biological target: Serine/threonine-protein kinase PLK1 (Homo sapiens, UniProt P53350); test: Inhibition of recombinant human PLK1 using casein as substrate
[12] = biological target: Serine/threonine-protein kinase N1 (Homo sapiens, UniProt Q16512); test: Inhibition of recombinant human PRK1
[13] = biological target: Proto-oncogene tyrosine-protein kinase Src (Homo sapiens, UniProt P12931); test: Inhibition of recombinant human SRC using poly(Glu,Tyr)4:1 as substrate
[14] = biological target: Vascular endothelial growth factor receptor 2 (Homo sapiens, UniProt P35968); test: Inhibition of recombinant human VEGF-R2 using poly(Glu,Tyr)4:1 as substrate
Vascular endothelial growth factor receptor 2, sequence (P35968 whole entry): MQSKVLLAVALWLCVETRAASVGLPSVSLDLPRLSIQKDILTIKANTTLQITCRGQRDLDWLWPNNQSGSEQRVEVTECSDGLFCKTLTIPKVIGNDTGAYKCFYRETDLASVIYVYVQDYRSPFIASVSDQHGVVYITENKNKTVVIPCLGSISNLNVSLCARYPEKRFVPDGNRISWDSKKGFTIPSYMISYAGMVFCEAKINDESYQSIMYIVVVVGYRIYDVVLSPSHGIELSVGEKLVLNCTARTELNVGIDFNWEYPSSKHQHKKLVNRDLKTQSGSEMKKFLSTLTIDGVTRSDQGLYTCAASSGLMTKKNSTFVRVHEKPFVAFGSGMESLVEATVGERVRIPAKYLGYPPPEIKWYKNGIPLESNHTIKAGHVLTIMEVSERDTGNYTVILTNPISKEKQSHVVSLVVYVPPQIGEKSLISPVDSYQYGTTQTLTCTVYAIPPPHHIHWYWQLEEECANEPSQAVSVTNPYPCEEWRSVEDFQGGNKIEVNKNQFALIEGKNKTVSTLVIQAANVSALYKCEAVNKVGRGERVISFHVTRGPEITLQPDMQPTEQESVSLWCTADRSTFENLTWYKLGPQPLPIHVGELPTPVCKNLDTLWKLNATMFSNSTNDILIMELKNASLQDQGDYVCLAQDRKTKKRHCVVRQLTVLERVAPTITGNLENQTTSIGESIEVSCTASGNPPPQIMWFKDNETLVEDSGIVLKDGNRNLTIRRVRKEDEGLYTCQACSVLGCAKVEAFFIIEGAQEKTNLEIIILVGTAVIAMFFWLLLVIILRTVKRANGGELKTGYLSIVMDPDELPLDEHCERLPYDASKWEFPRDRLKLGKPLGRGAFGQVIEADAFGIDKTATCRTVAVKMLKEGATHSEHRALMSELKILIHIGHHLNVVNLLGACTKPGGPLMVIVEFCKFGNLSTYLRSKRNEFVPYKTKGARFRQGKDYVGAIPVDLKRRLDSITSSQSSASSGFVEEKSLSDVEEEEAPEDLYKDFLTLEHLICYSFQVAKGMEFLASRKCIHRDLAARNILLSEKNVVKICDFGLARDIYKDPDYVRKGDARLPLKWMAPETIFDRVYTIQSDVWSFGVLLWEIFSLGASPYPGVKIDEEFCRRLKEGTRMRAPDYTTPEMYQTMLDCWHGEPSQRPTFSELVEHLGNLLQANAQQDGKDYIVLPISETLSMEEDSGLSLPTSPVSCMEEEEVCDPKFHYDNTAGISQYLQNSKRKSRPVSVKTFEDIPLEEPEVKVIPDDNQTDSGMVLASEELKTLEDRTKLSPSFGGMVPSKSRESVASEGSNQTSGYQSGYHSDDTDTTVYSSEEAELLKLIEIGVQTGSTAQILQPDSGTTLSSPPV

Dual specificity mitogen-activated protein kinase kinase 1, sequence (Q02750 whole entry): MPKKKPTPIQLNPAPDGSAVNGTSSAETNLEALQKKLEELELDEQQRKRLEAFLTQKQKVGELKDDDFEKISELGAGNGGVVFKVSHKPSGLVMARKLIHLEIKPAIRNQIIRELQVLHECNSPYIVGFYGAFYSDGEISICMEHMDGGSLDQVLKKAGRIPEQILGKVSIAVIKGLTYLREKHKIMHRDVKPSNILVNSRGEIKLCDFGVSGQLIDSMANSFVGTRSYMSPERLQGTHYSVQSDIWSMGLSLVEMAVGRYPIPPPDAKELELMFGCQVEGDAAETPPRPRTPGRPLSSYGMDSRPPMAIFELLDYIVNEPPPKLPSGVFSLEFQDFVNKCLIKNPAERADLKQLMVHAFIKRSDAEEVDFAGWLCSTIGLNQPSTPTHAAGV
Hepatocyte growth factor receptor, sequence (P08581 whole entry): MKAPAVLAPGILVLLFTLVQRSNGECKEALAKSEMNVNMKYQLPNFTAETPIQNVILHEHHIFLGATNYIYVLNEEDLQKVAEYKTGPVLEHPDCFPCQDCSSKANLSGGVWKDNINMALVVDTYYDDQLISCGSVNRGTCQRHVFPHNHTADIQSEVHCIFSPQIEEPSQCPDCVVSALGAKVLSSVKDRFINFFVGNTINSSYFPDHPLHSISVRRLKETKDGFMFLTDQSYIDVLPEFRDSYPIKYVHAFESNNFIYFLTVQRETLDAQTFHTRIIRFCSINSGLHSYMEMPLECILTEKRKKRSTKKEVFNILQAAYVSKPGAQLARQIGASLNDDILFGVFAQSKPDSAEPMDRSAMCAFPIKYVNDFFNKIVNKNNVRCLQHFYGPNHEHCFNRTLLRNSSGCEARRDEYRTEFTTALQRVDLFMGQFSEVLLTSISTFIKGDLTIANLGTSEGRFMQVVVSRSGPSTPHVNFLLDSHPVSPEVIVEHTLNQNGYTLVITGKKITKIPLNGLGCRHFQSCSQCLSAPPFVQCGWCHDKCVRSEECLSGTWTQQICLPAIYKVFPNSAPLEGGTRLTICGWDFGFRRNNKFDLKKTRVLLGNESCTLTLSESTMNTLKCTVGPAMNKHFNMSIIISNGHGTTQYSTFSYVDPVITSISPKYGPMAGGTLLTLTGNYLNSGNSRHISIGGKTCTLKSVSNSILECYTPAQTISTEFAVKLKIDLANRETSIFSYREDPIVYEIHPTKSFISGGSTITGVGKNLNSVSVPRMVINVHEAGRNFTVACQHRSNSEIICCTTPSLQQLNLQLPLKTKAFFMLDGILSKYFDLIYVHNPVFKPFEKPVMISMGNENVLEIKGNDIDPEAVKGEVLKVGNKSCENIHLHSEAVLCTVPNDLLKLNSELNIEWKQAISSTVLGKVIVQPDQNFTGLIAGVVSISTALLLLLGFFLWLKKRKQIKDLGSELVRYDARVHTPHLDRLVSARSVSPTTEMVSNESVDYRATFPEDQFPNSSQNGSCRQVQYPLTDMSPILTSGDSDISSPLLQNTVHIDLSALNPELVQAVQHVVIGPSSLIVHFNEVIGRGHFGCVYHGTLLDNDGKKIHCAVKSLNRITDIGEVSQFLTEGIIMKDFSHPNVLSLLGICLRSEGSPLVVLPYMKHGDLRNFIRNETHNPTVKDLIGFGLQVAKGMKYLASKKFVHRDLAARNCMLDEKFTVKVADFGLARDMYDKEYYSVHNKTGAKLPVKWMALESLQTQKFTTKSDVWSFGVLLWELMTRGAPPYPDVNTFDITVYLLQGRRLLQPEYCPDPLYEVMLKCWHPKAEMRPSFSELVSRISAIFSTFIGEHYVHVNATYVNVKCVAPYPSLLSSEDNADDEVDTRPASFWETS
Aurora kinase B, sequence (Q96GD4 whole entry): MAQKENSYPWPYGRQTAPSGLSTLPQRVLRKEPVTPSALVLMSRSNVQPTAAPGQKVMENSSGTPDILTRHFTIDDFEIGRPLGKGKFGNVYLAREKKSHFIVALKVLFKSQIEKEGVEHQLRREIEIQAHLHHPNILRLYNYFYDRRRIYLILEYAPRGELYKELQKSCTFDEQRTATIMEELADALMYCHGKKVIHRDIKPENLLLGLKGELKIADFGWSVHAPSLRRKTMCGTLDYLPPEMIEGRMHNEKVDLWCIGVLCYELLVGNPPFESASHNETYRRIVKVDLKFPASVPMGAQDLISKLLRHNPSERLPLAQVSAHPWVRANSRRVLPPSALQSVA
Focal adhesion kinase 1, sequence (Q05397 whole entry): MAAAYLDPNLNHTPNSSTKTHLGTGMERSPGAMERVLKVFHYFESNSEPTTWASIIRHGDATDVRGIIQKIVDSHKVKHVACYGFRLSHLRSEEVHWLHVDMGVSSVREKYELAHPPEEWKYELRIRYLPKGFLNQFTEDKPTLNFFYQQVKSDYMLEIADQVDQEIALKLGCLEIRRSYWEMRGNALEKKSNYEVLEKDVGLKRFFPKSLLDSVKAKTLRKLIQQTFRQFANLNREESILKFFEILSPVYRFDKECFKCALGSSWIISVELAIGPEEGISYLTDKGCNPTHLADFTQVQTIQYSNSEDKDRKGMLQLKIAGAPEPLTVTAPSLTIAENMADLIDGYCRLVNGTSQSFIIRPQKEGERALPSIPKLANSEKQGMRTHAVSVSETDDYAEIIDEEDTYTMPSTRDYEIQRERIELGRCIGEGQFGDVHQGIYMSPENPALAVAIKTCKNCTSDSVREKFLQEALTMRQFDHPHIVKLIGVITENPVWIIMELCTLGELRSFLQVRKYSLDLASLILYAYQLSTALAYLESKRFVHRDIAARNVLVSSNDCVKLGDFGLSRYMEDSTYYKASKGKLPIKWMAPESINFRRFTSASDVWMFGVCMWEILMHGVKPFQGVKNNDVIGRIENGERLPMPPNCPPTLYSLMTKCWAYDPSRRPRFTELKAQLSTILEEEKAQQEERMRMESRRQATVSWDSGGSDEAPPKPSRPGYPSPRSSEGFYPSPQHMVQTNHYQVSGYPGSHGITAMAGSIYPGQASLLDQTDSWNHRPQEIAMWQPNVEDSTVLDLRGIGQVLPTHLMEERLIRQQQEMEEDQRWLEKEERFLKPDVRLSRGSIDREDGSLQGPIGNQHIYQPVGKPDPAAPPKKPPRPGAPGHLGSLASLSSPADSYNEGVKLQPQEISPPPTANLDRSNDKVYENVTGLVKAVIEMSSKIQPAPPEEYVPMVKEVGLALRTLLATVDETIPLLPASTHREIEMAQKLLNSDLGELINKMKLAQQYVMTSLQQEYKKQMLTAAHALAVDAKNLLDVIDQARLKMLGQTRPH
Proto-oncogene tyrosine-protein kinase Src, sequence (P12931 2-536 limits assumed): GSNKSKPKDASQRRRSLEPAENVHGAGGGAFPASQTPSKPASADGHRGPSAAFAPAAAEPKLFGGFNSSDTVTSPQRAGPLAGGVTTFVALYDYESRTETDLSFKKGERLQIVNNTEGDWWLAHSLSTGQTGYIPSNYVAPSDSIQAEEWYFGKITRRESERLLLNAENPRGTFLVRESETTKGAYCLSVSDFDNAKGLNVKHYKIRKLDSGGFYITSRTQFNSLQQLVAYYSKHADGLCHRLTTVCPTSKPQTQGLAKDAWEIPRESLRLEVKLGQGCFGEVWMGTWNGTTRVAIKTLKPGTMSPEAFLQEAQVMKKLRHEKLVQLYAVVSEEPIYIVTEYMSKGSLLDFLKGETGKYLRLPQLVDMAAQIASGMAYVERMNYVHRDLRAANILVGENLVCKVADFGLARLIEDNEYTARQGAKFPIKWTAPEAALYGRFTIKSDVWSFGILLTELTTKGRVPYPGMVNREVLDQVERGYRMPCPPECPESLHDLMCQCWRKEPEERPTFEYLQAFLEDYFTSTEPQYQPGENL

| Structure (SMILES) | IC50 [1] [µM] | IC50 [2] [µM] | IC50 [3] [µM] | IC50 (Aurora kinase B) [µM] | IC50 [4] [µM] | IC50 (Focal adhesion kinase 1) [µM] | IC50 [5] [µM] | IC50 [6] [µM] | IC50 [7] [µM] | IC50 [8] [µM] | IC50 [9] [µM] | IC50 [10] [µM] | IC50 [11] [µM] | IC50 [12] [µM] | IC50 [13] [µM] | IC50 [14] [µM] |
| --- | --- | --- | --- | --- | --- | --- | --- | --- | --- | --- | --- | --- | --- | --- | --- | --- |
| C=C(CC[C@@H](C)[C@H]1CC[C@H]2[C@H](CCc3cc(O)ccc3C)C(=O)CC[C@]12C)C(C)C | > 100 | 4.36 | > 100 | > 100 | 20.2 | 10.7 | 2.3 | > 100 | 27.5 | > 100 | > 100 | > 100 | 100 | > 100 | 1.48 | 4.85 |
| Cc1ccc(O)cc1CC[C@@H]1[C@@H](O)CC[C@]2(C)[C@@H]([C@H](C)/C=C/CC(C)C)CC[C@@H]12 (relative stereo) | > 100 | 9.33 | > 100 | 38.1 | 21.9 | 16.9 | 3.16 | > 100 | – | > 100 | > 100 | > 100 | > 100 | > 100 | 2.4 | 4.95 |
| Cc1ccc(O)cc1CC[C@@H]1[C@H](O)CC[C@]2(C)[C@@H]([C@H](C)CCCC(C)C)CC[C@@H]12 [ASTROGORGIADIOL] | > 100 | 7.55 | > 100 | 25.1 | 16.9 | 13.2 | 2.77 | 48.9 | 78 | > 100 | > 100 | > 100 | > 100 | > 100 | 1.91 | 4.35 |
| Cc1ccc(O)cc1CC[C@@H]1C(=O)CC[C@]2(C)[C@@H]([C@H](C)/C=C/CC(C)C)CC[C@@H]12 [CALICOFEROL A] | > 100 | 4.16 | > 100 | > 100 | 14.7 | 9.92 | 2.42 | > 100 | 47.6 | > 100 | > 100 | > 100 | > 100 | > 100 | 2.24 | 4.6 |
| Cc1ccc(O)cc1CC[C@@H]1[C@H](O)CC[C@]2(C)[C@@H]([C@H](C)CCCC(C)C)[C@@H](O)C[C@@H]12 [CALICOFEROL B] | > 100 | > 100 | > 100 | > 100 | > 100 | > 100 | > 100 | > 100 | > 100 | > 100 | > 100 | > 100 | > 100 | > 100 | > 100 | > 100 |
| C=C(CC[C@@H](C)[C@H]1CC[C@H]2[C@H](CCc3cc(O)ccc3C)[C@H](O)CC[C@]12C)C(C)C [CALICOFEROL C] | > 100 | > 100 | > 100 | > 100 | > 100 | > 100 | > 100 | > 100 | > 100 | > 100 | > 100 | > 100 | > 100 | > 100 | > 100 | > 100 |
| Cc1ccc(O)cc1CC[C@@H]1C(=O)CC[C@]2(C)[C@@H]([C@H](C)CCCC(C)C)CC[C@@H]12 [CALICOFEROL E] | > 100 | 4.73 | > 100 | > 100 | 32.6 | 9.63 | 2.46 | > 100 | – | > 100 | > 100 | > 100 | > 100 | > 100 | 2.17 | 6.01 |
| Cc1ccc(O)cc1CC[C@@H]1C(=O)CC[C@]2(C)[C@@H]([C@H](C)CCCC(C)C)[C@@H](O)C[C@@H]12 [CALICOFEROL I] | > 100 | > 100 | > 100 | > 100 | > 100 | > 100 | > 100 | > 100 | > 100 | > 100 | > 100 | > 100 | > 100 | > 100 | > 100 | > 100 |
